Measurements as given in US5135936A, “Isomers of 1-azabicyclo[2.2.2]oct-3-yl methyl 1,4-dihydro-2,6-dimethyl-4-(3-nitrophenyl)-3,5-pyridinediacarboxylic and their use as calcium antagonists” (Marion Merrell Dow Inc., priority 1991, dated 1992).
Where a name gives a salt, the structure may show the parent alone.

Legend:
[1] = target: [3H]-Nitrendipine Binding in Rat Cortical Membranes; assay: Inhibition of [3H]-Nitrendipine Binding in Rat Cortical Membranes; conditions: rat cortex, room temperature, 90 min
Description: [3H]-Nitrendioine Bindino in Rat Cortex
Animals were decapitated and the cortical tissue was dissected, weighed and polytroned in about 20 volumes (w/v) of ice cold buffer ([…] TRIS HCl, pH 7.5). The tissue was then washed 3 times via centrifugation (20,000 rpm for 10 min at 4° C.) with subsequent resuspension in fresh buffer. The final pellet was resuspended prior to the assay at 22.5 mg/mL […]. Incubations were performed at room temperature for 90 min in each assay. These incubations were done in triplicate in a final assay volume of 2.0 mL. Non-specific binding was determined by the addition of 1 uM nifedipine for the [3H]-nitrendipine assay each to triplicate set of tubes. Reactions in each assay were terminated by filtration using a Brandel Cell Harvester followed by washing with ice cold buffer.
For preliminary evaluations in each assay, all compounds were examined at four log concentrations (1 nM-1 uM). full displacement curves were generated on all compounds showing inhibition of specific binding of 50% or greater at a 1 uM drug concentration. Standard reference compounds were included and evaluated in each assay. Analysis of data was done using both the EBDA Scafit program and HP-11C linear regression.

Guinea Pig Ileum = target: T1, Guinea Pig Ileum (Cavia porcellus, UniProt O35505); assay: Calcium Channel Antagonist Activity in Guinea Pig Isolated Ileal Smooth Muscle (inhibition of Ca++ evoked contractions); conditions: concentration producing a two-fold rightward shift in the control Ca++ curve; KCl-depolarized (80 mM) longitudinal smooth muscle
T1 construct: The longitudinal smooth muscle is carefully separated from the underlying circular muscle layer; from tissue; host or cells: guinea pig ileum (terminal 10 cm discarded), isolated longitudinal smooth muscle
Description: Calcium Channel Antagonist Activity in Guinea Pig Isolated Ileal Smooth Muscle
Male albino guinea pigs are sacrificed by stunning and exsanguination. The abdominal cavity is opened and the small intestine is removed, with about 10 cm of the terminal ileum being discarded. The tissue is placed in a dish containing Tyrode's solution of the following composition (in mM): NaCl 136.90; KCl 2.68; NaHCO3 11.90; NaH2 PO4 0.36; MgCl2 0.98; CaCl2 1.77; dextrose 5.55 and cut into three to four segments. A glass rod (6 mm diameter) is carefully inserted into the lumen of each segment and excess connective tissue or fat is removed. The longitudinal smooth muscle is carefully separated from the underlying circular muscle layer by gently stroking a moist cotton swab on a tangent to shallow, longitudinal incisions made parallel to the mesenteric attachment. Using gentle traction, and taking care to keep the segment moist at all times, the preparation is stripped from the remaining length of the ileal segment (Paton, W. D. M.; Zar, M. A.; J. Physiol. 1968, 194, 13.)
Each preparation is suspended in a 10 mL jacketed glass tissue bath containing Tyrode's solution maintained at 37° C. and gassed with 5% CO2 in O2. The preparation is attached by silk thread to a force-displacement transducer. […] The initial resting tension is adjusted to 0.5 g and the preparation equilibrated for 55 min prior to experimentation. At the end of this period, the bathing solution is replaced with Ca^++ free Tyrode's solution. This solution is prepared by omitting CaCl2. The preparation is washed four times in Ca^++ free Tyrode's solution to remove any Ca^++ remaining in the bath, and allowed to equilibrate for a further 20 min.
Experimental Protocol. Concentration-response curves to CaCl2 are obtained using the following procedure. Preparations are exposed to a depolarizing concentration of KCl (80 mM) for 6 min. At the end of this period CaCl2 is added to the bath cumulatively in the concentration range 0.2-8.0 mM. Successive additions of each Ca^++ concentration are carried out only when the previous response has reached a plateau. When the maximum response has been attained the bath is again washed (five times) with Ca^++ free buffer, and the preparation re-equilibrated for approximately 15 min. A second Ca^++ concentration-response curve is then obtained in the same manner. This second curve serves as control for that tissue.
Further curves are obtained in the presence of increasing concentrations of the test drugs. Where appropriate, the test drug is added to the bath immediately following addition of KCl, and 6 minutes later the concentration-response curve to Ca^++ is obtained. Each test preparation is exposed to three different concentrations of a test drug. […]

[3H]-yohimbine binding = rank among the enantiomers, in words; cited from earlier work
[2] = in words; cited from earlier work
[3] = tested on: spontaneously hypertensive rats; conditions: rank among the enantiomers, in words; cited from earlier work
[4] = tested on: [3H]-nitrendipine binding; conditions: rank among the enantiomers, in words; cited from earlier work

T1 sequence (O35505 whole entry): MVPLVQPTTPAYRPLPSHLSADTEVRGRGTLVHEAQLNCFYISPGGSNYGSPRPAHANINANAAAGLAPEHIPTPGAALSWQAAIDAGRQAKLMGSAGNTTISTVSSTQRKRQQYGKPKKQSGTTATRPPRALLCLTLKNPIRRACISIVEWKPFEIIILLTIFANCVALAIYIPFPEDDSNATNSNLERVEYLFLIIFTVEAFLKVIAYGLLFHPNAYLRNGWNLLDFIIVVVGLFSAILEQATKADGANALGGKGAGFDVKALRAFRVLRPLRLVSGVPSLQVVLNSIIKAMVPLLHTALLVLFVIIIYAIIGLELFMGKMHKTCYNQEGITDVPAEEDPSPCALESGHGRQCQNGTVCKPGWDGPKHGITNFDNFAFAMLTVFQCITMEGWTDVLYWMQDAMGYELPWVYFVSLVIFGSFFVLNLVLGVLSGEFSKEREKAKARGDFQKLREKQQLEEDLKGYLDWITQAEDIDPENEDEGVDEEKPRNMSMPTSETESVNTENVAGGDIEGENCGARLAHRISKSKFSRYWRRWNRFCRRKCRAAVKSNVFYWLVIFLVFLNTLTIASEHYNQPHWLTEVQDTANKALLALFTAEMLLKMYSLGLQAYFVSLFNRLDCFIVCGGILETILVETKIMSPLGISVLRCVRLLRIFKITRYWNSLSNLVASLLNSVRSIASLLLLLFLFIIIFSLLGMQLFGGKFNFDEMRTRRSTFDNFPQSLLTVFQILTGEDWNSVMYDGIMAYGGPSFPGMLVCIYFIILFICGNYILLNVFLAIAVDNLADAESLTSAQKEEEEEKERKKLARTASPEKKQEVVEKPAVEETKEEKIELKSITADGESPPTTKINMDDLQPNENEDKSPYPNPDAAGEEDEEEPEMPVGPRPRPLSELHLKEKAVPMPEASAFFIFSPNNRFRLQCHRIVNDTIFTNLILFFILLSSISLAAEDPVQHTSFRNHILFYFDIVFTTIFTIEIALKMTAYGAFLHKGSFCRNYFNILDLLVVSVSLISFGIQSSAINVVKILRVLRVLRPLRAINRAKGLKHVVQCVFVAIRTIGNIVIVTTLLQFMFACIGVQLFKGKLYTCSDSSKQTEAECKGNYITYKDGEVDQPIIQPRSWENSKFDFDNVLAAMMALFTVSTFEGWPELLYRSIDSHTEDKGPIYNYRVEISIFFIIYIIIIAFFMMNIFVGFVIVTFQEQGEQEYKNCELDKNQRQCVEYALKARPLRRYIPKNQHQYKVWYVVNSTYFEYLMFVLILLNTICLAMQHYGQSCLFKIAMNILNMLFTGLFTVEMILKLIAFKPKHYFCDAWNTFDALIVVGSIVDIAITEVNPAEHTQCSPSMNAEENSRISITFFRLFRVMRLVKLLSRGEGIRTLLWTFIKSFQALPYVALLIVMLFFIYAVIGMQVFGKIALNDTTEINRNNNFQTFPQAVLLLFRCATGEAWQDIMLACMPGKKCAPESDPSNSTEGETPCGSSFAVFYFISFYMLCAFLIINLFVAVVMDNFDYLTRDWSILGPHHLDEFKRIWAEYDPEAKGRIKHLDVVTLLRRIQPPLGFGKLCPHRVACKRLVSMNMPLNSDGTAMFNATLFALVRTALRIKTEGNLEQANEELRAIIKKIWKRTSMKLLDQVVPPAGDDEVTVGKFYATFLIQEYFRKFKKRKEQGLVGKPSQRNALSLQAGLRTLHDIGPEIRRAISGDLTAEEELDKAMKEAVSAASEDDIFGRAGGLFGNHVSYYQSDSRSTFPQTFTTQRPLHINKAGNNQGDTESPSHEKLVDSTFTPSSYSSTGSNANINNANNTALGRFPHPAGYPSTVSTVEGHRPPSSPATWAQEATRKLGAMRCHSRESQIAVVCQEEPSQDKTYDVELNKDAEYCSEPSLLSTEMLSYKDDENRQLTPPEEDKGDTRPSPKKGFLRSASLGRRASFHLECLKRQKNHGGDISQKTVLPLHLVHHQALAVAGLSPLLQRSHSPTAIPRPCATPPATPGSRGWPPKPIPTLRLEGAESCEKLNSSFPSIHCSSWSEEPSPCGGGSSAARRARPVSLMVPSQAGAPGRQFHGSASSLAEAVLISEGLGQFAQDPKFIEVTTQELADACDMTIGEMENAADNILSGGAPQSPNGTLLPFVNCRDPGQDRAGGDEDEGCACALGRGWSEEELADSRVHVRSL

SMILES: COC(=O)C1=C(C)NC(C)=C(C(=O)O[C@H]2CN3CCC2CC3)[C@H]1c1cccc([N+](=O)[O-])c1 [(R,S)-I, (R,S)-1-Azabicyclo[2.2.2]oct-3-yl methyl 1,4-dihydro-2,6-dimethyl-4-(3-nitrophenyl)3,5-pyridinedicarboxylate]
- Ki [1]: 56 nM
- Kb (Guinea Pig Ileum): 174 nM

SMILES: COC(=O)C1=C(C)NC(C)=C(C(=O)O[C@H]2CN3CCC2CC3)[C@H]1c1cccc([N+](=O)[O-])c1 [(S,R)-I, (S,R)-1-azabicyclo[2.2.2]oct-3-yl methyl 1,4-dihydro-2,6-dimethyl-4-(3-nitrophenyl)-3,5pyridinedicarboxylate, hydrochloride]
- Kb (Guinea Pig Ileum): 3160 nM

SMILES: COC(=O)C1=C(C)NC(C)=C(C(=O)O[C@@H]2CN3CCC2CC3)[C@H]1c1cccc([N+](=O)[O-])c1 [(S,S)-I, (S,S)-1-Azabicyclo[2.2.2]oct-3-yl methyl 1,4-dihydro-2,6-dimethyl-4-(3-nitrophenyl)-3,5-pyridinedicarboxylate]
- Kb (Guinea Pig Ileum): 1620 nM

SMILES: COC(=O)C1=C(C)NC(C)=C(C(=O)OCCN(C)C[C@H]2COc3ccccc3O2)[C@H]1c1cccc([N+](=O)[O-])c1 [2-[N-methyl-N-[(2,3-dihydro-1,4-benzodioxin-2-yl)methyl]amino]ethyl methyl 2,6-dimethyl-4-(3-nitrophenyl)-1,4-dihydropyridine-3,5-dicarboxylate]
- inhibition of [3H]-yohimbine binding ([3H]-yohimbine binding): most potent

SMILES: COC(=O)C1=C(C)NC(C)=C(C(=O)OC(C)C)[C@@H]1c1cccc2nonc12 [(R)-enantiomer of PN 200-110, isopropyl methyl 4-(2,1,3-benzoxadiazol-4-yl) -1,4-dihydro-2,6-dimethyl-3,5-pyridinedicarboxylate]
- blood flow to the heart and brain [2]: increased
- cardiac output [2]: increased
- effect on blood pressure [2]: almost no effect
- effect on heart rate [2]: almost no effect
- potency in the subendocardium of the left ventricle [2]: surprisingly potent

SMILES: COC(=O)C1=C(C)NC(C)=C(C(=O)O[C@H]2CN3CCC2CC3)[C@@H]1c1cccc([N+](=O)[O-])c1 [(R,R)-I, (R,R)-1-Azabicyclo[2.2.2]oct-3-yl methyl 1,4-dihydro-2,6-dimethyl-4-(3-nitrophenyl)-3,5-pyridinedicarboxylate]
- Ki [1]: 11 nM
- Kb (Guinea Pig Ileum): 34 nM

SMILES: COC(=O)C1=C(C)NC(C)=C(C(=O)O[C@H]2CCCN(Cc3ccccc3)C2)[C@H]1c1cccc([N+](=O)[O-])c1 [(S,S)-enantiomer of 1-benzyl-3-piperidinyl ester]
- Ca++ channel blocking activity as determined by lowering of blood pressure in spontaneously hypertensive rats [3]: greatest

SMILES: COC(=O)C1=C(C)NC(C)=C(C(=O)OCCN(C)C[C@@H]2COc3ccccc3O2)[C@@H]1c1cccc([N+](=O)[O-])c1 [2-[N-methyl-N-[(2,3-dihydro-1,4-benzodioxin-2-yl)methyl]amino]ethyl methyl 2,6-dimethyl-4-(3-nitrophenyl)-1,4-dihydropyridine-3,5-dicarboxylate]
- inhibition of [3H]-nitrendipine binding [4]: most potent

SMILES: COC(=O)C1=C(C)NC(C)=C(C(=O)O[C@H]2CCN(Cc3ccccc3)C2)[C@H]1c1cccc([N+](=O)[O-])c1 [(S,S)-enantiomer of 1-benzyl-3-pyrrolidinyl ester]
- Ca++ channel blocking activity as determined by inhibition of [3H]-nitrendipine binding [4]: greatest

SMILES: COC(=O)C1=C(C)NC(C)=C(C(=O)OC(C)C)[C@H]1c1cccc2nonc12 [(S)-enantiomer of PN 200-110, isopropyl methyl 4-(2,1,3-benzoxadiazol-4-yl) -1,4-dihydro-2,6-dimethyl-3,5-pyridinedicarboxylate]
- blood flow to the heart and brain [2]: increased
- cardiac output [2]: increased
- effect on blood pressure [2]: lowered
- effect on heart rate [2]: lowered
